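Five compound concentrations were applied to cells in 96-well plates for 48 hours; endpoints were derived by simple linear interpolation of the resulting dose-response curve. GI50 marks 50% less growth.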 The source made the active and inactive calls. No stated cut-off is given here; in the data, active = GI50 up to about 1.1 µM and inactive = higher. Bounds are passed on as bounds.

Among the test systems are DU-145; T47D; HOP-62; MCF7; MDA-MB-435; PC-3; BT-549; RXF 393; HT-29; SF-539; OVCAR-4; UO-31; SK-MEL-28; EKVX; HL-60; COLO 205; IGROV-1; U-251; LOX IMVI.
Common to all, as to assay: growth of human tumour cells (NCI), 48 h

`O=S(=O)(O)c1ccc(/N=N/c2ccccc2)cc1`: the GI50 with DU-145, in the assay with T47D, with HOP-62, with MCF7, in the assay with MDA-MB-435 and in the assay on PC-3 was > 100 µM (inactive) in each case. Moreover, the GI50 in the assay on BT-549, in the assay on RXF 393, with HT-29, in the assay on SF-539, in the assay on OVCAR-4 and with UO-31 was > 100 µM (inactive) each time. Besides, the GI50 in the assay on SK-MEL-28, in the assay with EKVX, in the assay with HL-60, in the assay with COLO 205, in the assay with IGROV-1 and with U-251 was > 100 µM (inactive) each time. Also, the GI50 with LOX IMVI is > 100 µM (inactive).
As for `O=C(/C=C/c1cccc(Br)c1)c1ccc(Cl)cc1`, the GI50 in the assay on DU-145 is 14.8 µM (inactive); in the assay on T47D, 12.8 µM (inactive); in the assay on HOP-62, 19.2 µM (inactive); with MCF7 it was 4.38 µM (inactive); in the assay on MDA-MB-435, 6.25 µM (inactive); with PC-3, 15 µM (inactive). Also, the GI50 with BT-549 was 17 µM (inactive); with RXF 393 it was 17.8 µM (inactive); in the assay on HT-29, 11.2 µM (inactive); in the assay with SF-539, 16.6 µM (inactive); with OVCAR-4, 4.36 µM (inactive); in the assay on UO-31, 15.5 µM (inactive). In addition, the GI50 with SK-MEL-28 was 15.1 µM (inactive); with EKVX, 16 µM (inactive); with HL-60, 14.3 µM (inactive); with COLO 205 it was 17.2 µM (inactive); in the assay with IGROV-1, 17.1 µM (inactive); in the assay with U-251, 5.98 µM (inactive). Besides, the GI50 in the assay on LOX IMVI is 12.6 µM (inactive).
As to `C=C(Br)COc1ccc2c(C)cc(=O)oc2c1`, the GI50 in the assay on DU-145 was > 100 µM (inactive); in the assay on T47D it was 20.2 µM (inactive); in the assay on HOP-62, 69.8 µM (inactive); with MCF7, < 0.01 µM (active); in the assay with MDA-MB-435 it was 56.1 µM (inactive); in the assay with PC-3 it was > 100 µM (inactive). The GI50 was > 100 µM (inactive) in the assay with BT-549; 0.0721 µM (active) in the assay on RXF 393; 66.4 µM (inactive) in the assay with HT-29; 67 µM (inactive) in the assay on SF-539; 50.7 µM (inactive) in the assay with OVCAR-4; 64.1 µM (inactive) with UO-31. The GI50 in the assay with SK-MEL-28 is > 100 µM (inactive); in the assay with EKVX it was 43.3 µM (inactive); with HL-60, 40.2 µM (inactive); with COLO 205 it was 1.99 µM (inactive); with IGROV-1, 49.3 µM (inactive); in the assay with U-251, 65.3 µM (inactive). In addition, in the assay with LOX IMVI, the GI50 is > 100 µM (inactive).
On to `Cc1cc(Cc2c(F)c(F)c(Cc3cc(C)no3)c(F)c2F)on1`, for which the GI50 is > 100 µM (inactive) in the assay with DU-145; > 100 µM (inactive) with T47D; 25.4 µM (inactive) in the assay on HOP-62; > 100 µM (inactive) in the assay on MCF7; > 100 µM (inactive) in the assay with MDA-MB-435; > 100 µM (inactive) with PC-3. Moreover, the GI50 was > 100 µM (inactive) in the assay on BT-549; 33 µM (inactive) in the assay on RXF 393; > 100 µM (inactive) with HT-29; 47.6 µM (inactive) with SF-539; > 100 µM (inactive) with OVCAR-4; > 100 µM (inactive) in the assay with UO-31. Further, the GI50 in the assay with SK-MEL-28 is > 100 µM (inactive); with EKVX, > 100 µM (inactive); in the assay with HL-60, > 100 µM (inactive); in the assay on COLO 205 it was > 100 µM (inactive); in the assay with IGROV-1 it was > 100 µM (inactive); in the assay on U-251, 64.1 µM (inactive). Moreover, the GI50 in the assay on LOX IMVI was 80.4 µM (inactive).
`COC(=O)C(NC(=O)C12CCC(C)(C(=O)O1)C2(C)C)c1cc(C(C)(C)C)c(O)c(C(C)(C)C)c1` (configuration not stated): the GI50 was > 100 µM (inactive) in the assay on DU-145; 81.7 µM (inactive) in the assay on T47D; > 100 µM (inactive) in the assay with HOP-62; 47.5 µM (inactive) in the assay on MCF7; > 100 µM (inactive) with MDA-MB-435; 67 µM (inactive) with PC-3. In addition, the GI50 with BT-549 is > 100 µM (inactive); in the assay with RXF 393 it was 83.2 µM (inactive); in the assay on HT-29 it was 72.9 µM (inactive); with SF-539, > 100 µM (inactive); in the assay with OVCAR-4, > 100 µM (inactive); with UO-31, 95.9 µM (inactive). The GI50 in the assay on SK-MEL-28 was > 100 µM (inactive); in the assay on EKVX, > 100 µM (inactive); in the assay with HL-60, 4.95 µM (inactive); with COLO 205 it was 49.4 µM (inactive); in the assay with IGROV-1, > 100 µM (inactive); with U-251, 73.1 µM (inactive). Further, the GI50 with LOX IMVI is > 100 µM (inactive).
For the compound `NC(=O)[C@H](Cc1ccc(O)cc1)NC1=C(Cl)C(=O)c2c(O)ccc(O)c2C1=O`, the GI50 with DU-145 was 6.53 µM (inactive); with T47D, 2.15 µM (inactive); with HOP-62, > 10 µM (inactive); in the assay with MCF7, 1.32 µM (inactive); in the assay on MDA-MB-435, 2.07 µM (inactive); in the assay with PC-3, 2.24 µM (inactive). Further, the GI50 was 2.47 µM (inactive) with BT-549; 3.52 µM (inactive) in the assay with RXF 393; 2.38 µM (inactive) in the assay on HT-29; 2.17 µM (inactive) in the assay on SF-539; 1.83 µM (inactive) in the assay on OVCAR-4; 4 µM (inactive) with UO-31. The GI50 with SK-MEL-28 was 2.21 µM (inactive); with EKVX it was > 10 µM (inactive); with HL-60, 1.04 µM (active); with COLO 205, 1.5 µM (inactive); with IGROV-1 it was 2.07 µM (inactive); in the assay with U-251, 2.97 µM (inactive). In addition, the GI50 with LOX IMVI was 1.61 µM (inactive).
On to `COc1cc2c(cc1Cl)[n+]([O-])c(C#N)c(N1CCN(c3ccc([N+](=O)[O-])cc3)CC1)[n+]2[O-]`, for which the GI50 with DU-145 is 13.8 µM (inactive); in the assay with T47D it was 3.48 µM (inactive); with HOP-62 it was 8.34 µM (inactive); with MCF7 it was 6 µM (inactive); in the assay with MDA-MB-435 it was 19.5 µM (inactive); with PC-3, 17.9 µM (inactive). Besides, the GI50 was 15 µM (inactive) in the assay with BT-549; 27 µM (inactive) with RXF 393; 36.9 µM (inactive) in the assay with HT-29; 10.8 µM (inactive) in the assay with SF-539; 30 µM (inactive) in the assay with OVCAR-4; 0.938 µM (active) in the assay on UO-31. Further, the GI50 was 34.8 µM (inactive) in the assay with SK-MEL-28; 28.6 µM (inactive) with EKVX; 51.2 µM (inactive) in the assay on HL-60; 34.4 µM (inactive) in the assay with COLO 205; 2.17 µM (inactive) in the assay on IGROV-1; 7.78 µM (inactive) with U-251. In addition, the GI50 in the assay with LOX IMVI is 4.68 µM (inactive).
With `BC(=O)NC(CC(C)C)C(=O)NCC(=O)NC1c2ccsc2C(=O)C1O.CN(C)C` (configuration not stated), the GI50 was > 100 µM (inactive) in the assay with DU-145; > 100 µM (inactive) in the assay with T47D; > 100 µM (inactive) in the assay with HOP-62; 2.37 µM (inactive) in the assay on MCF7; > 100 µM (inactive) in the assay with MDA-MB-435; > 100 µM (inactive) with PC-3. Besides, the GI50 in the assay on BT-549, with RXF 393, with HT-29, in the assay with SF-539, in the assay with OVCAR-4 and in the assay with UO-31 was > 100 µM (inactive) throughout. Besides, the GI50 with SK-MEL-28, in the assay with EKVX, in the assay with HL-60, in the assay on COLO 205, with IGROV-1 and in the assay with U-251 was > 100 µM (inactive) in each case. Further, the GI50 in the assay with LOX IMVI is > 100 µM (inactive).

For the origin of these results see ChEMBL document CHEMBL1201862, “PubChem BioAssay data set” (2004).
